Entries after “also recorded” stand apart in the source; their conditions may differ.
Columns and labels:
[1] = system: injured nerve (sensory nerves); conditions: rat, in vivo
[2] = system: unmyelinated primary afferent sensory nerves; conditions: rat, in vivo
[3] = system: nAChR; assay type: binding, bovine
[4] = system: rats with chronic constriction injury; conditions: rat, in vivo
[5] = in vivo; cited from earlier work
[6] = system: neuronal nAChR; assay type: cell-based, bovine
[7] = rat, in vivo
[8] = rat, in vivo; remark: listed apart in the source

With “GCCSD4 -HypRCNYDHPgammacarboxy-GluIC-NH2 [Vc1.1ptm]” the “recovery of vascular response to substance P compared to control” value [1] was 85%, the “inhibition of sensory nerve activity (comparison)” value [2] was “less effective than Vc1.1” and the “displacement of 3H-epibatidine binding” value [3] was “displaced the first component, but did not significantly displace the second component”. The “long-term effectiveness in inhibiting neuropathic pain” value [4] was “without effect; also recorded: but not Vc1.1ptm was effective”.

In the case of `CSCC[C@@H]1NC(=O)[C@H](CC(C)C)NC(=O)[C@H](CCCNC(=N)N)NC(=O)[C@H](CO)NC(=O)[C@@H]2CSSC[C@@H]3NC(=O)[C@H](CO)NC(=O)CNC(=O)[C@H]([C@@H](C)O)NC(=O)[C@H](CSSC[C@H](N)C(=O)N[C@@H](CCCCN)C(=O)NCC(=O)N[C@@H](CCCCN)C(=O)NCC(=O)N[C@@H](C)C(=O)N[C@@H](CCCCN)C(=O)N2)NC(=O)[C@H](CSSC[C@@H](C(N)=O)NC(=O)[C@H](CCCCN)NC(=O)CNC(=O)[C@H](CO)NC(=O)[C@H](CCCNC(=N)N)NC3=O)NC(=O)[C@H](CC(=O)O)NC(=O)[C@H](Cc2ccc(O)cc2)NC1=O` [MVIIA], the “potency relative to morphine” value [5] is given as 1000 times, the “recovery of vascular response to substance P compared to control” value [1] is given as 54% and the “inhibition of the vascular response to LFES of sensory nerves” value [2] is given as “significant inhibition; also recorded: more effective”.

In the case of “G C C S H P A C Y A N N Q D Y C-NH2 [An1.1]”, the “inhibition of the neuronal nicotinic response in cultured BCCs (comparison)” value [6] is reported as “not nearly as inhibitory as Vc1.1”, the “nature of the inhibition of nicotine-evoked catecholamine release” value [6] is reported as “competitive inhibitor” and the “protection against nicotinic receptor desensitisation” value [6] is reported as “protects against nicotinic receptor desensitisation”.

In the case of `CC[C@H](C)[C@@H]1NC(=O)[C@H](CCC(=O)O)NC(=O)[C@@H]2CCCN2C(=O)[C@H](Cc2cnc[nH]2)NC(=O)[C@H](CC(=O)O)NC(=O)[C@H](Cc2ccc(O)cc2)NC(=O)[C@H](CC(N)=O)NC(=O)[C@@H]2CSSC[C@H](NC(=O)CN)C(=O)N[C@@H](CSSC[C@@H](C(N)=O)NC1=O)C(=O)N[C@@H](CO)C(=O)N[C@@H](CC(=O)O)C(=O)N1CCC[C@H]1C(=O)N[C@@H](CCCNC(=N)N)C(=O)N2` [Vc1.1, GCCSDPRCNYDHPEIC-NH2], the adverse side-effects [7] is reported as “not observed any adverse side-effects” and the “effect upon systemic blood pressure” value [8] is reported as “no effect”.

From US7348400B2 (priority 2001, dated 2008)
